Results from patent US20030078212A1, “PHARMACEUTICAL COMPOSITIONS CONTAINING POLY(ADP-RIBOSE) GLYCOHYDROLASE INHIBITORS AND METHODS OF USING THE SAME” (priority 1998, published 2003).
Blank lines part the entries; values can stand above or below the compound they belong to.

Key:
[1] = tested on: ischemia and reperfusion of the heart; details: rabbits, cited from earlier work
[2] = tested on: human fibroblast cells lines (W138 or BJ cells); test: Extending proliferative capacity and lifespan of cells; assay type: cell-based
Experimental: At the time of subdivision, the media is aspirated, and the cells rinsed with phosphate buffer saline (PBS) and then trypsinized. The cells are counted with a Coulter counter and plated at a density of 10^5 cells per cm^2 in 6-well tissue culture plates in DMEM/199 medium supplemented with 10% bovine calf serum and varying amounts (0.10 μM, and 1 mM: from a 100×stock solution in DMEM/M199 medium) of a PARG inhibitor. This process is repeated every 7 days until the cell appear to stop dividing. The untreated (control) cells reach senescence and stop dividing after about 40 days in culture. […] The cells treated with 1 mM 3-AB will still divide after 60 days in culture.

Colitis = details: rats; colitis by trinitrobenzene sulfonic acid in 50% ethanol; cited from earlier work
[3] = tested on: cell viability, glucose metabolism, and DNA synthesis; details: cited from earlier work
endotoxic shock = details: cited from earlier work

SMILES: Oc1cccc2c(O)nccc12 [1,5-dihydroxyisoquinoline]
reduction in infarct size ([1]; 1 mg/kg): 38-48%

SMILES: NC(=O)c1cccc(N)c1 [3-aminobenzamide]
effect on lifespan of the cells ([2]; 10 μM): little or no effect
effect on lifespan of the cells ([2]; 100 μM): lengthen the lifespan of the cells
effect on lifespan and proliferative capacity of the cells ([2]; 1 mM): dramatically increases the lifespan and proliferative capacity of the cells
time in culture at which cells still divide ([2]; 1 mM, untreated cells stop dividing after about 40 days): > 60 days
reduction in infarct size in the heart ([1]; single injection 10 mg/kg, one minute before occlusion or one minute before reperfusion): 32-42%
inflammatory response, morphology and energetic status of the distal colon (Colitis): reduced the inflammatory response and restored the morphology and the energetic status of the distal colon
additional metabolic effects (side effects) [3]: affect cell viability, glucose metabolism, and DNA synthesis

melting point: 85 to 90 °C
SMILES: COc1cc(C(=O)OC[C@H]2OC(OC(=O)c3cc(OC)c(OC)c(OC)c3)[C@H](OC(=O)c3cc(OC)c(OC)c(OC)c3)[C@@H](OC(=O)c3cc(OC)c(OC)c(OC)c3)[C@@H]2OC(=O)c2cc(OC)c(OC)c(OC)c2)cc(OC)c1OC (stereo partly drawn) [Example 4, 1,2,3,4,6-Penta-O-(3,4,5-Trimethoxybenzoyl)-D-Glucopyranose]

SMILES: NC(=O)c1ccccc1 [benzamide]
additional metabolic effects (side effects) [3]: affect cell viability, glucose metabolism, and DNA synthesis

SMILES: NC(=O)c1cccnc1 [nicotinamide]
delayed, NO-mediated vascular failure (endotoxic shock): protects against delayed, NO-mediated vascular failure in endotoxic shock
